How the values were obtained:
[1] = biological target: 5-hydroxytryptamine 1D receptor (Bos taurus, UniProt Q8MI13)
[2] = biological target: T1, Cysteinyl leukotriene receptor 1 (Cavia porcellus, UniProt Q2NNR5)
T1 sequence (Q2NNR5 whole entry): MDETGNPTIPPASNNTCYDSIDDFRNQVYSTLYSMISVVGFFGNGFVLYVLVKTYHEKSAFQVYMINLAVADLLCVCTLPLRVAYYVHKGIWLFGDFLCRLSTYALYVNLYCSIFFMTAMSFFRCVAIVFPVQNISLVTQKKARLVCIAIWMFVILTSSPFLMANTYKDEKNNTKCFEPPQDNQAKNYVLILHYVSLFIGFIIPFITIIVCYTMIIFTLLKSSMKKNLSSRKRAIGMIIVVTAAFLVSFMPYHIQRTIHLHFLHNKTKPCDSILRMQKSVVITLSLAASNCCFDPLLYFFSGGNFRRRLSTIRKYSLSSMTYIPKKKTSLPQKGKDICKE

[3] = biological target: Gamma-aminobutyric acid receptor subunit alpha-1 (Rattus norvegicus, UniProt P62813)
Chain of Gamma-aminobutyric acid receptor subunit alpha-1 (P62813 whole entry): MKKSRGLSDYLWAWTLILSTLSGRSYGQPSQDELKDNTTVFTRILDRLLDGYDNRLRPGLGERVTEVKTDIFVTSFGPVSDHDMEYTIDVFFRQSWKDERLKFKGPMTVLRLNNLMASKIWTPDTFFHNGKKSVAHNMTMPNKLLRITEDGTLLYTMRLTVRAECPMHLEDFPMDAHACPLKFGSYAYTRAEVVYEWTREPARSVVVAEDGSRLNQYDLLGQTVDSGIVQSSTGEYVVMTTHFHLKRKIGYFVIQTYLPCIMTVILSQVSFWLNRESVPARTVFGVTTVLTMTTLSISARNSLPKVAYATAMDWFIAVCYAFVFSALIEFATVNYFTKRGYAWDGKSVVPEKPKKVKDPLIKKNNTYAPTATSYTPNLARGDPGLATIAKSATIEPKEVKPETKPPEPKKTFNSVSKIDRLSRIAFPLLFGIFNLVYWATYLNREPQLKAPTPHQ

[4] = biological target: Kappa-type opioid receptor (Rattus norvegicus, UniProt P34975)
Chain of Kappa-type opioid receptor (P34975 whole entry): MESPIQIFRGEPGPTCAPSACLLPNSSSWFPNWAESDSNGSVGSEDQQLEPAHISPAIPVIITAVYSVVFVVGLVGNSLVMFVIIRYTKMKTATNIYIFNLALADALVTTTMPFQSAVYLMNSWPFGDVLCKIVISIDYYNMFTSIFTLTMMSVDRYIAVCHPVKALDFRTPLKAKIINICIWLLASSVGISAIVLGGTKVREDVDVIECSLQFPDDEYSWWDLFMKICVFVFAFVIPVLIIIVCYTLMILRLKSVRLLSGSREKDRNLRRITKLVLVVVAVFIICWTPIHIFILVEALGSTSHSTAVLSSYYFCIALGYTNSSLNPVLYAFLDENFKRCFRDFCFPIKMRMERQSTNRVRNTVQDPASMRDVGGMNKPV

Adenosine receptor A1 = biological target: T2, Adenosine receptor A1 (Bos taurus, UniProt P28190)
T2 sequence (P28190 whole entry): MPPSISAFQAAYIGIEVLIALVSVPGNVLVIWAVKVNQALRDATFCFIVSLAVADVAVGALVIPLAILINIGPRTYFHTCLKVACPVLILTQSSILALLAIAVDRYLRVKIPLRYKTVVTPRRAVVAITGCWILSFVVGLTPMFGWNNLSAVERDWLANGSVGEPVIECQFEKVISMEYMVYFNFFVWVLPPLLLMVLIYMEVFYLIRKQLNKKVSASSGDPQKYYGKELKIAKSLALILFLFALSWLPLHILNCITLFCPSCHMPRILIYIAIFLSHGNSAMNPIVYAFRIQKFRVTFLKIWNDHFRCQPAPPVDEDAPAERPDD

[5] = biological target: Beta-1 adrenergic receptor (Rattus norvegicus, UniProt P18090)
Chain of Beta-1 adrenergic receptor (P18090 whole entry): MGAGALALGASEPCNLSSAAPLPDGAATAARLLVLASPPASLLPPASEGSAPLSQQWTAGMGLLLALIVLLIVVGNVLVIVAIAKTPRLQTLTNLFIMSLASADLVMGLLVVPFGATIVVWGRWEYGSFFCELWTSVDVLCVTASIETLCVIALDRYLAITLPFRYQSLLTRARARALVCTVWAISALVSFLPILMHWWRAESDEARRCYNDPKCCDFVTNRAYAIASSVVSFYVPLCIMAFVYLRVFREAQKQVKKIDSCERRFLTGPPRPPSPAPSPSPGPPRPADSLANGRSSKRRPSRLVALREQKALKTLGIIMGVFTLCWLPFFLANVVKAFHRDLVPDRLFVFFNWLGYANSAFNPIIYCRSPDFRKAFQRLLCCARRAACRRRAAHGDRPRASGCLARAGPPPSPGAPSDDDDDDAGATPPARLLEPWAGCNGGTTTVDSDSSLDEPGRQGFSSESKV

[6] = biological target: T3, 5-hydroxytryptamine receptor 3A (Mus musculus, UniProt P23979)
T3 sequence (P23979 whole entry): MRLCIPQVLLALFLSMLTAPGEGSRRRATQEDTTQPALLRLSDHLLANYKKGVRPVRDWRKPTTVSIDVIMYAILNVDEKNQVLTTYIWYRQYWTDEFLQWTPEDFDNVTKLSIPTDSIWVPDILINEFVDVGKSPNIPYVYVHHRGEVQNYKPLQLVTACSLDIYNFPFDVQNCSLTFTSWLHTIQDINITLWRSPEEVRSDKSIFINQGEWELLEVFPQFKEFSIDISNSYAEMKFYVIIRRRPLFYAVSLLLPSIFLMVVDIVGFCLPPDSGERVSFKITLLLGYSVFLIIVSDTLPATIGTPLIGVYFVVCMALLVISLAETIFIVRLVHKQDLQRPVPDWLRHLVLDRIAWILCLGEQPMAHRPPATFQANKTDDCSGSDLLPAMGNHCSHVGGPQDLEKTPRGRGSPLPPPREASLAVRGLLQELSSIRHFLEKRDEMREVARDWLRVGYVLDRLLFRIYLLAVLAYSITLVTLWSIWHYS

[7] = biological target: 5-hydroxytryptamine receptor 2A (Rattus norvegicus, UniProt P14842)
Chain of 5-hydroxytryptamine receptor 2A (P14842 whole entry): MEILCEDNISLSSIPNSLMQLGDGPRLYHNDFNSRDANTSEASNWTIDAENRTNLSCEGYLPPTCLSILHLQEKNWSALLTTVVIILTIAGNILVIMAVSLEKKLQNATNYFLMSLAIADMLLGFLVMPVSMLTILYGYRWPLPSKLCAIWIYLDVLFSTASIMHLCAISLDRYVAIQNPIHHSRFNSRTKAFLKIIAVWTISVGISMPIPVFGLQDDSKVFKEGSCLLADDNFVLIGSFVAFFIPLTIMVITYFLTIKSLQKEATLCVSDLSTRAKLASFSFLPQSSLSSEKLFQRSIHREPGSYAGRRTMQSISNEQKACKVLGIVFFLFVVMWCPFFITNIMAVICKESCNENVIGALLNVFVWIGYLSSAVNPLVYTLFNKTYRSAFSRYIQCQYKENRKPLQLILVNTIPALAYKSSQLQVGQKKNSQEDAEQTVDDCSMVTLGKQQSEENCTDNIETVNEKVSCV

[8] = biological target: T4, 5-hydroxytryptamine receptor 2C (Sus scrofa, UniProt G7ZKZ7)
T4 sequence (G7ZKZ7 whole entry): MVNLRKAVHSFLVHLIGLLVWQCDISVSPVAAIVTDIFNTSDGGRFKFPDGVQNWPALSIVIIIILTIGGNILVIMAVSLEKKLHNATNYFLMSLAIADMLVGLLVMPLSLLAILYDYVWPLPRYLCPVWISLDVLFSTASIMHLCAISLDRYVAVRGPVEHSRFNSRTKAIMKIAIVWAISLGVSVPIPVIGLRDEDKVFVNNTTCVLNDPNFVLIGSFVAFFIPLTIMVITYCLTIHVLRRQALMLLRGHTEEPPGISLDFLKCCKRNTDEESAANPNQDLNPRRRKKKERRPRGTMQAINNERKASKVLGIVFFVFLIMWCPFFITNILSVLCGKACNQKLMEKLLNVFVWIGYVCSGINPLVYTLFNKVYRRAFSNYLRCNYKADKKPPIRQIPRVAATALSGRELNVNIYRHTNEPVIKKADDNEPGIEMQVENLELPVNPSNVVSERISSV

[9] = biological target: T5, Muscarinic acetylcholine receptor M1 (Rattus norvegicus, UniProt P08482)
T5 sequence (P08482 whole entry): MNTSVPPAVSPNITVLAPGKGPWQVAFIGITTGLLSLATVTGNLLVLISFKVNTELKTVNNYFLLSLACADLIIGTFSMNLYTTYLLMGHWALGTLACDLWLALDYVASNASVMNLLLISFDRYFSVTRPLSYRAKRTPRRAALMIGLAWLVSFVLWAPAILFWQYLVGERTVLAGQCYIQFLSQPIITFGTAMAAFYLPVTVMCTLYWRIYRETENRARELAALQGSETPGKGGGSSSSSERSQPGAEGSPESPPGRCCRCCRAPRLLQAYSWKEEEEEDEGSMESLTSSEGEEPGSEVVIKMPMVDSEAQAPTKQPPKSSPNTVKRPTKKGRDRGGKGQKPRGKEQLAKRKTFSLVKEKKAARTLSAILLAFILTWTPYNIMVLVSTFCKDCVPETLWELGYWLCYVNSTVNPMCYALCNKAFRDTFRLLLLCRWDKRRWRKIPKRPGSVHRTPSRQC

[10] = biological target: 5-hydroxytryptamine receptor 1B (Rattus norvegicus, UniProt P28564)
Chain of 5-hydroxytryptamine receptor 1B (P28564 whole entry): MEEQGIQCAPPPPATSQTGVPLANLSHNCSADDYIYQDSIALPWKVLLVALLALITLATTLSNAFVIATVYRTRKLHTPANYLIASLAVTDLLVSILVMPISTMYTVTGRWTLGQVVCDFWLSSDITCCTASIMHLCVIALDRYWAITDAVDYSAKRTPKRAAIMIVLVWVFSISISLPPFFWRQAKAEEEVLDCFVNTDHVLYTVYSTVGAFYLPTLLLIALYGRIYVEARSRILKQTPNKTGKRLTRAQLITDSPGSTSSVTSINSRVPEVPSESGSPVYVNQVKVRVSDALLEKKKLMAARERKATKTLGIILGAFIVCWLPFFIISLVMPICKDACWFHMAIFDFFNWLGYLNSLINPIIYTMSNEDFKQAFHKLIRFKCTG

Chain of 5-hydroxytryptamine 1D receptor (Q8MI13 whole entry): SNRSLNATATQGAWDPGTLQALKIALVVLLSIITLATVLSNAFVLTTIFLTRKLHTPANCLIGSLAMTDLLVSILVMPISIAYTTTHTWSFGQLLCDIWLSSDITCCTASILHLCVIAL

## N=C(N)NC(=O)c1nc(Cl)c(N2CCCCCC2)nc1N
[1]
  Ki: > 10 µM
[2]
  Ki: > 10 µM
[3]
  Ki: > 10 µM
[4]
  Ki: 3.9 µM
Adenosine receptor A1
  Ki: 0.41 µM
[5]
  Ki: > 10 µM
[6]
  Ki: > 10 µM
[7]
  Ki: 0.4 µM
[8]
  Ki: 6.7 µM
[9]
  Ki: 3.6 µM
[10]
  Ki: > 10 µM

## NC(=NCc1ccccc1)NC(=O)c1nc(Cl)c(N)nc1N [NSC_108107]
[1]
  Ki: > 10 µM
[2]
  Ki: > 10 µM
[3]
  Ki: > 10 µM
[4]
  Ki: > 10 µM
Adenosine receptor A1
  Ki: 0.65 µM
[5]
  Ki: > 10 µM
[6]
  Ki: 2.2 µM
[7]
  Ki: 1.4 µM
[8]
  Ki: > 10 µM
[9]
  Ki: 2.9 µM
[10]
  Ki: > 10 µM

## N=C(N)NC(=O)c1nc(Cl)c(N)nc1N [3,5-diamino-N-carbamimidoyl-6-chloropyrazine-2-carboxamide]
[1]
  Ki: > 10 µM
[2]
  Ki: > 10 µM
[3]
  Ki: > 10 µM
[4]
  Ki: > 10 µM
Adenosine receptor A1
  Ki: 2 µM
[5]
  Ki: > 10 µM
[6]
  Ki: > 10 µM
[7]
  Ki: > 10 µM
[8]
  Ki: > 10 µM
[9]
  Ki: > 10 µM
[10]
  Ki: > 10 µM
